Experimental data as given in PubChem BioAssay (NCI).
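In this assay, cells in 96-well plates receive the compound at five concentrations for 48 hours. Endpoints are linearly interpolated between the surrounding concentrations. Here, GI50 denotes the concentration required for 50% inhibition of growth. At the TGI there is no net growth.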

Columns and labels:
Assay in all cases: inhibition of tumour cell growth, NCI panel, 48 h
SR leukemia = tested on: SR leukemia
IGROV1 ovarian = tested on: IGROV1 ovarian
DU-145 prostate = tested on: DU-145 prostate
HCT-116 colon = tested on: HCT-116 colon
MALME-3M melanoma = tested on: MALME-3M melanoma
OVCAR-3 ovarian = tested on: OVCAR-3 ovarian
HS 578T breast = tested on: HS 578T breast
A549 NSCLC = tested on: A549 NSCLC

Question: What does the source list for C[C@]12CC[C@H]3[C@@H](CC=C4C[C@@H](N5CCCC5)CC[C@@]43C)[C@@H]1C/C(=C\c1cccc(OCCN3CCOCC3)c1)[C@@H]2O?
Answer: GI50 (SR leukemia): 3.03 µM; TGI (SR leukemia): > 100 µM; GI50 (IGROV1 ovarian): 12.8 µM; TGI (IGROV1 ovarian): > 100 µM; GI50 (DU-145 prostate): 1.85 µM; TGI (DU-145 prostate): > 100 µM; GI50 (HCT-116 colon): 1.66 µM; TGI (HCT-116 colon): 5.13 µM; GI50 (MALME-3M melanoma): 2.15 µM; TGI (MALME-3M melanoma): 6.11 µM; GI50 (OVCAR-3 ovarian): 2.3 µM; TGI (OVCAR-3 ovarian): 7.55 µM; GI50 (HS 578T breast): 2.88 µM; TGI (HS 578T breast): 18.2 µM; GI50 (A549 NSCLC): 3.48 µM; TGI (A549 NSCLC): 45.4 µM

Question: What does the source list for CCC(C)[C@H](NC(=O)Nc1cc(C(F)(F)F)cc(C(F)(F)F)c1)C(=O)N[C@@H](Cc1cn(C)cn1)C(=O)OC (stereo partly drawn)?
Answer: GI50 (SR leukemia): 0.801 µM; TGI (SR leukemia): 2.08 µM; GI50 (IGROV1 ovarian): 1.04 µM; TGI (IGROV1 ovarian): 2.06 µM; GI50 (DU-145 prostate): 1.07 µM; TGI (DU-145 prostate): 1.83 µM; GI50 (HCT-116 colon): 0.606 µM; TGI (HCT-116 colon): 1.21 µM; GI50 (MALME-3M melanoma): 1.41 µM; TGI (MALME-3M melanoma): 2.01 µM; GI50 (OVCAR-3 ovarian): 0.621 µM; TGI (OVCAR-3 ovarian): 1.14 µM; GI50 (HS 578T breast): 1.47 µM; TGI (HS 578T breast): 2.61 µM; GI50 (A549 NSCLC): 1.33 µM; TGI (A549 NSCLC): 1.85 µM

Question: O=C(Nc1cccc(O)c1)c1ccc(NC2=C(Cl)C(=O)N(Cc3ccc(Cl)cc3Cl)C2=O)cc1 was tested. Which GI50 (SR leukemia) did it give?
Answer: 0.168 µM

Question: And the TGI (SR leukemia)?
Answer: 0.411 µM

Question: And the GI50 (IGROV1 ovarian)?
Answer: 1.7 µM

Question: What about the TGI (IGROV1 ovarian) of the same molecule?
Answer: 3.3 µM

Question: And the GI50 (DU-145 prostate)?
Answer: 6.15 µM

Question: And the TGI (DU-145 prostate)?
Answer: 11.6 µM

Question: What about the GI50 (HCT-116 colon) of the same molecule?
Answer: 6.89 µM

Question: And the TGI (HCT-116 colon)?
Answer: > 56.4 µM

Question: And the GI50 (MALME-3M melanoma)?
Answer: 2.23 µM

Question: What about the TGI (MALME-3M melanoma) of the same molecule?
Answer: 5.75 µM

Question: What about the GI50 (OVCAR-3 ovarian) of the same molecule?
Answer: 1.66 µM

Question: And the TGI (OVCAR-3 ovarian)?
Answer: 3.45 µM

Question: What about the GI50 (HS 578T breast) of the same molecule?
Answer: 3.24 µM

Question: And the TGI (HS 578T breast)?
Answer: 11.9 µM

Question: What about the GI50 (A549 NSCLC) of the same molecule?
Answer: 15.7 µM

Question: What about the TGI (A549 NSCLC) of the same molecule?
Answer: 31.7 µM

Question: What does the source list for OC(COC(c1ccccc1)(c1ccccc1)c1ccccc1)C(O)CC1SCCS1 (stereo not drawn)?
Answer: TGI (SR leukemia): 0.953 µM; TGI (IGROV1 ovarian): 30.5 µM; TGI (DU-145 prostate): 41.5 µM; TGI (HCT-116 colon): 37.1 µM; TGI (MALME-3M melanoma): 26.3 µM; TGI (OVCAR-3 ovarian): 62.9 µM; TGI (HS 578T breast): 39.7 µM

Question: For CC1(C)CNc2cc(NC(=O)c3cccnc3NCc3ccncc3)ccc21, which GI50 (SR leukemia) is on record?
Answer: 26.1 µM

Question: What about the TGI (SR leukemia) of the same molecule?
Answer: > 100 µM

Question: What about the GI50 (IGROV1 ovarian) of the same molecule?
Answer: 19.9 µM

Question: What about the TGI (IGROV1 ovarian) of the same molecule?
Answer: > 84.2 µM

Question: What about the GI50 (DU-145 prostate) of the same molecule?
Answer: 23 µM

Question: What about the TGI (DU-145 prostate) of the same molecule?
Answer: > 100 µM

Question: What about the GI50 (HCT-116 colon) of the same molecule?
Answer: 34.3 µM

Question: What about the TGI (HCT-116 colon) of the same molecule?
Answer: > 100 µM

Question: And the GI50 (MALME-3M melanoma)?
Answer: 15.9 µM

Question: What about the TGI (MALME-3M melanoma) of the same molecule?
Answer: 84.9 µM

Question: What about the GI50 (OVCAR-3 ovarian) of the same molecule?
Answer: 21.9 µM

Question: And the TGI (OVCAR-3 ovarian)?
Answer: > 77.5 µM

Question: And the GI50 (HS 578T breast)?
Answer: 26.8 µM

Question: What about the TGI (HS 578T breast) of the same molecule?
Answer: > 100 µM

Question: And the GI50 (A549 NSCLC)?
Answer: 31.9 µM

Question: And the TGI (A549 NSCLC)?
Answer: > 100 µM

Question: Which results are given for Cc1ccc(/C=N/Nc2nc(Nc3ccccc3)nc(-n3nc(C)cc3C)n2)cc1?
Answer: GI50 (SR leukemia): 3.31 µM; TGI (SR leukemia): > 100 µM; GI50 (IGROV1 ovarian): 4.99 µM; TGI (IGROV1 ovarian): 44.8 µM; GI50 (DU-145 prostate): 5.45 µM; TGI (DU-145 prostate): > 100 µM; GI50 (HCT-116 colon): 3.18 µM; TGI (HCT-116 colon): 11.7 µM; GI50 (MALME-3M melanoma): 4.21 µM; TGI (MALME-3M melanoma): 26.8 µM; GI50 (OVCAR-3 ovarian): 3.2 µM; TGI (OVCAR-3 ovarian): 43.6 µM; GI50 (HS 578T breast): 5.03 µM; TGI (HS 578T breast): 56.5 µM; GI50 (A549 NSCLC): 4.19 µM; TGI (A549 NSCLC): 35.7 µM

Question: CCOC(=O)c1cc2c(cc1Cl)SC(=Nc1ccccc1)N(S(=O)(=O)c1ccc(Cl)cc1)S2(=O)=O was tested. Which GI50 (IGROV1 ovarian) did it give?
Answer: 8.11 µM

Question: And the TGI (IGROV1 ovarian)?
Answer: 22.5 µM

Question: And the GI50 (DU-145 prostate)?
Answer: 17.3 µM

Question: And the TGI (DU-145 prostate)?
Answer: 31 µM

Question: What about the GI50 (HCT-116 colon) of the same molecule?
Answer: 6.32 µM

Question: What about the TGI (HCT-116 colon) of the same molecule?
Answer: 21.9 µM

Question: What about the GI50 (OVCAR-3 ovarian) of the same molecule?
Answer: 12.2 µM

Question: And the TGI (OVCAR-3 ovarian)?
Answer: 26.3 µM

Question: What about the GI50 (HS 578T breast) of the same molecule?
Answer: 17 µM

Question: And the TGI (HS 578T breast)?
Answer: 52.9 µM

Question: What about the GI50 (A549 NSCLC) of the same molecule?
Answer: 26.1 µM

Question: And the TGI (A549 NSCLC)?
Answer: 68 µM

Question: For COC(=O)C1=C(O)[C@H](C(=O)OC)C2(O)C(C(=O)OC)[C@H](c3ccc(OC(=O)C(C)c4ccc(CC(C)C)cc4)cc3)C[C@@H]1[C@@H]2C(=O)OC (stereo partly drawn), which GI50 (SR leukemia) is on record?
Answer: 0.754 µM

Question: And the TGI (SR leukemia)?
Answer: > 50 µM

Question: And the GI50 (IGROV1 ovarian)?
Answer: 15 µM

Question: What about the TGI (IGROV1 ovarian) of the same molecule?
Answer: 41.3 µM

Question: What about the GI50 (DU-145 prostate) of the same molecule?
Answer: 0.804 µM

Question: And the TGI (DU-145 prostate)?
Answer: 9.58 µM

Question: What about the GI50 (HCT-116 colon) of the same molecule?
Answer: > 50 µM

Question: What about the TGI (HCT-116 colon) of the same molecule?
Answer: > 50 µM

Question: And the GI50 (OVCAR-3 ovarian)?
Answer: > 50 µM

Question: And the TGI (OVCAR-3 ovarian)?
Answer: > 50 µM

Question: And the GI50 (HS 578T breast)?
Answer: 33 µM

Question: And the TGI (HS 578T breast)?
Answer: > 50 µM

Question: And the GI50 (A549 NSCLC)?
Answer: 26.8 µM

Question: What about the TGI (A549 NSCLC) of the same molecule?
Answer: > 50 µM
